Assay results reported in the supplement of paper PMC11451515.

Tests used:
Conditions in all cases: 48 h
[1] = tested on: SEM cells; assay: AUC of viability dose-response curve (% viability x log10 dose units); higher = less sensitive
Method in brief: (§1)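 Leukemia cells adapted to each medium were seeded at 500 or 1000 cells/well in 1536-well plates and dosed with library compounds in DMSO at 11 threefold doses from 47 μM to 0.79 nM for 48 h at 37°C. CellTiter-Glo One luminescence was normalised per plate to DMSO and cell-free wells, then fitted with a four-parameter log-logistic model over log10 doses. Area under the curve was taken from this fit by the trapezoidal rule, with curves above full viability scaled and curves failing quality control removed.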

[2] = tested on: NOMO1; assay: as above
Method in brief: as §1

[3] = tested on: P12-Ichikawa; assay: as above
Method in brief: as §1

[4] = tested on: SEM cells; assay: cell viability relative to DMSO control; higher = less cytotoxic
Method in brief: (§2)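 Library compounds in DMSO were pin-dosed in an 11-point threefold series (47 μM to 0.79 nM) onto leukemia cells in 1536-well plates (5 μl). Plates held 500 cells/well of NOMO1 or SEM or 1000 cells/well of P12-Ichikawa, each adapted for at least four passages in each medium. Luminescence was read with CellTiter-Glo One after 48 h at 37°C. Viability means the per-plate percentage relative to DMSO wells, using cell-free wells as background.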

[5] = tested on: NOMO1; assay: as above
Method in brief: as §2

[6] = tested on: P12-Ichikawa; assay: as above
Method in brief: as §2

C\C1=C(\C=C(C#N)/C(=O)N1)C2=C[N]3C=CN=C3C=C2
AUC of viability dose-response curve
Conditions | [1] | [2] | [3]
HPLM + 10% dialyzed FBS | 383 | 407 | 419
RPMI 5 mM glucose + 10% FBS | 424 | 393 | 394
RPMI 5 mM glucose + 10% dialyzed FBS | 411 | 405 | 375

cell viability [%]
Conditions | [4] | [5] | [6]
HPLM + 10% dialyzed FBS, 0.000781 µM | 66.9 | 69.8 | 88.1
HPLM + 10% dialyzed FBS, 0.00234 µM | 77.5 | 82.7 | 82.3
HPLM + 10% dialyzed FBS, 0.00702 µM | 81.6 | 88.2 | 87.3
HPLM + 10% dialyzed FBS, 0.0211 µM | 75 | 79.1 | 89.8
HPLM + 10% dialyzed FBS, 0.0632 µM | 82.2 | 80.9 | 87.1
HPLM + 10% dialyzed FBS, 0.19 µM | 72.6 | 79.9 | 84.6
HPLM + 10% dialyzed FBS, 0.569 µM | 71.8 | 83.7 | 89.9
HPLM + 10% dialyzed FBS, 1.71 µM | 87.4 | 89.3 | 88.5
HPLM + 10% dialyzed FBS, 5.12 µM | 91.4 | 97.9 | 85.1
HPLM + 10% dialyzed FBS, 15.4 µM | 83.3 | 94.4 | 91.5
HPLM + 10% dialyzed FBS, 46.1 µM | 94.7 | 93 | 92.5
RPMI 5 mM glucose + 10% FBS, 0.000781 µM | 73.7 | 85.2 | 88.8
RPMI 5 mM glucose + 10% FBS, 0.00234 µM | 88 | 82.2 | 80.1
RPMI 5 mM glucose + 10% FBS, 0.00702 µM | 82.8 | 80.6 | 82.9
RPMI 5 mM glucose + 10% FBS, 0.0211 µM | 96.8 | 80.9 | 88
RPMI 5 mM glucose + 10% FBS, 0.0632 µM | 90.4 | 84.5 | 79.3
RPMI 5 mM glucose + 10% FBS, 0.19 µM | 73.6 | 80.1 | 79.2
RPMI 5 mM glucose + 10% FBS, 0.569 µM | 94.6 | 94.5 | 80
RPMI 5 mM glucose + 10% FBS, 1.71 µM | 85.9 | 72.7 | 81.7
RPMI 5 mM glucose + 10% FBS, 5.12 µM | 102 | 81.1 | 86.6
RPMI 5 mM glucose + 10% FBS, 15.4 µM | 99.2 | 84.8 | 80.5
RPMI 5 mM glucose + 10% FBS, 46.1 µM | 89.6 | 78.9 | 84.7
RPMI 5 mM glucose + 10% dialyzed FBS, 0.000781 µM | 79.6 | 78.8 | 81.7
RPMI 5 mM glucose + 10% dialyzed FBS, 0.00234 µM | 72.2 | 81.1 | 72.9
RPMI 5 mM glucose + 10% dialyzed FBS, 0.00702 µM | 87.6 | 88.1 | 78.3
RPMI 5 mM glucose + 10% dialyzed FBS, 0.0211 µM | 88 | 83.4 | 78.7
RPMI 5 mM glucose + 10% dialyzed FBS, 0.0632 µM | 81.8 | 84.2 | 81.5
RPMI 5 mM glucose + 10% dialyzed FBS, 0.19 µM | 77.7 | 84.5 | 78.8
RPMI 5 mM glucose + 10% dialyzed FBS, 0.569 µM | 86.6 | 90.2 | 80.7
RPMI 5 mM glucose + 10% dialyzed FBS, 1.71 µM | 98.8 | 92 | 78.3
RPMI 5 mM glucose + 10% dialyzed FBS, 5.12 µM | 86.9 | 91.3 | 80.4
RPMI 5 mM glucose + 10% dialyzed FBS, 15.4 µM | 93.4 | 85.3 | 74.9
RPMI 5 mM glucose + 10% dialyzed FBS, 46.1 µM | 94 | 74.6 | 77.9

COc1cc2c(cc1OC)CC(=O)N(CCCN(C)C[C@H]1Cc3cc(OC)c(OC)cc31)CC2.Cl
AUC of viability dose-response curve
Conditions | [1] | [2] | [3]
HPLM + 10% dialyzed FBS | 464 | 466 | 475
RPMI 5 mM glucose + 10% FBS | 465 | 463 | 477
RPMI 5 mM glucose + 10% dialyzed FBS | 469 | 440 | 459

cell viability [%]
Conditions | [4] | [5] | [6]
HPLM + 10% dialyzed FBS, 0.000781 µM | 102 | 126 | 108
HPLM + 10% dialyzed FBS, 0.00234 µM | 96.8 | 115 | 111
HPLM + 10% dialyzed FBS, 0.00702 µM | 116 | 107 | 111
HPLM + 10% dialyzed FBS, 0.0211 µM | 115 | 122 | 108
HPLM + 10% dialyzed FBS, 0.0632 µM | 112 | 97.1 | 104
HPLM + 10% dialyzed FBS, 0.19 µM | 125 | 111 | 120
HPLM + 10% dialyzed FBS, 0.569 µM | 114 | 122 | 113
HPLM + 10% dialyzed FBS, 1.71 µM | 111 | 112 | 114
HPLM + 10% dialyzed FBS, 5.12 µM | 112 | 114 | 116
HPLM + 10% dialyzed FBS, 15.4 µM | 114 | 115 | 108
HPLM + 10% dialyzed FBS, 46.1 µM | 105 | 109 | 106
RPMI 5 mM glucose + 10% FBS, 0.000781 µM | 99.2 | 104 | 97.5
RPMI 5 mM glucose + 10% FBS, 0.00234 µM | 105 | 105 | 106
RPMI 5 mM glucose + 10% FBS, 0.00702 µM | 96.3 | 99.2 | 115
RPMI 5 mM glucose + 10% FBS, 0.0211 µM | 114 | 106 | 113
RPMI 5 mM glucose + 10% FBS, 0.0632 µM | 113 | 100 | 109
RPMI 5 mM glucose + 10% FBS, 0.19 µM | 107 | 102 | 111
RPMI 5 mM glucose + 10% FBS, 0.569 µM | 107 | 102 | 110
RPMI 5 mM glucose + 10% FBS, 1.71 µM | 95.7 | 99.6 | 102
RPMI 5 mM glucose + 10% FBS, 5.12 µM | 111 | 105 | 109
RPMI 5 mM glucose + 10% FBS, 15.4 µM | 92.9 | 97.5 | 104
RPMI 5 mM glucose + 10% FBS, 46.1 µM | 93.4 | 95.3 | 106
RPMI 5 mM glucose + 10% dialyzed FBS, 0.000781 µM | 93.6 | 111 | 104
RPMI 5 mM glucose + 10% dialyzed FBS, 0.00234 µM | 112 | 114 | 104
RPMI 5 mM glucose + 10% dialyzed FBS, 0.00702 µM | 108 | 130 | 114
RPMI 5 mM glucose + 10% dialyzed FBS, 0.0211 µM | 117 | 115 | 115
RPMI 5 mM glucose + 10% dialyzed FBS, 0.0632 µM | 104 | 113 | 113
RPMI 5 mM glucose + 10% dialyzed FBS, 0.19 µM | 88.3 | 106 | 111
RPMI 5 mM glucose + 10% dialyzed FBS, 0.569 µM | 105 | 92.6 | 102
RPMI 5 mM glucose + 10% dialyzed FBS, 1.71 µM | 104 | 110 | 97.3
RPMI 5 mM glucose + 10% dialyzed FBS, 5.12 µM | 103 | 110 | 108
RPMI 5 mM glucose + 10% dialyzed FBS, 15.4 µM | 113 | 93 | 98.1
RPMI 5 mM glucose + 10% dialyzed FBS, 46.1 µM | 92 | 100 | 100

NC\1=N\C(=O)N(\C=C1)[C@@H]2O[C@H](CO)[C@@H](O)[C@H]2O
AUC of viability dose-response curve
Conditions | [1] | [2] | [3]
HPLM + 10% dialyzed FBS | 452 | 417 | 467
RPMI 5 mM glucose + 10% FBS | 443 | 463 | 471
RPMI 5 mM glucose + 10% dialyzed FBS | 438 | 466 | 469

cell viability [%], [4]
Conditions | HPLM + 10% dialyzed FBS | RPMI 5 mM glucose + 10% FBS | RPMI 5 mM glucose + 10% dialyzed FBS
0.000781 µM | 78.4 | 86.3 | 83.6
0.00234 µM | 93.7 | 102 | 101
0.00702 µM | 119 | 123 | 125
0.0211 µM | 98.3 | 90.4 | 94.5
0.0632 µM | 117 | 135 | 140
0.19 µM | 131 | 143 | 138
0.569 µM | 132 | 143 | 154
1.71 µM | 115 | 144 | 152
5.12 µM | 111 | 127 | 154
15.4 µM | 125 | 147 | 153
46.1 µM | 75.3 | 64.7 | 46.8
